Laboratory results taken from patent US20050085552A1, “Method for providing long-lasting pain relief through intrathecal administration of civamide” (Winston Laboratories, Inc., priority 2003, published 2005).

Key:
[1] = assay type: physicochemical
Text: Civamide in amounts of 1 Φg, 5 Φg, 10 Φg, 50 Φg, and 100 Φg was dispersed in both 10 Φl and 20 Φl of each of the following: 100% dimethylsulfoxide (DMSO), normal saline (0.9% w/v sodium chloride) with 10% DMSO as suspending agent, normal saline with 0.5% DMSO and 10% cyclodextrin, 10% cyclodextrin and 10% DMSO as suspending agent, and normal saline with 10% cyclodextrin suspending agent, and normal saline with 25% DMSO. In each case, the saline was 0.9% USP.

[2] = system: male Sprague-Dawley rats; assay: Tail flick, hot plate (49° C., 52° C.) and paw pressure pain models after intrathecal administration; assay type: in vivo, rat; details: 1-100 Φg in 10 or 20 Φl, evaluated seven days later, paw pressure
Procedure: Civamide and capsaicin were each separately administered intrathecally, in dosages of 1 Φg, 5 Φg, 10 Φg, 50 Φg, or 100 Φg in either 10 Φl or 20 Φl of 0.9% USP saline with 25% DMSO suspending agent, 0.9% USP saline and 10% cyclodextrin, and 0.9% USP saline with 0.5% DMSO and 10% cyclodextrin, to male Sprague-Dawley rats into whom intrathecal catheters had been inserted. Seven days later, tail flick, hot plate (49° C., 52° C.) and paw pressure pain models were evaluated.

[3] = system: male Sprague-Dawley rats; assay: Pain models after a single intrathecal dose: thermal escape, formalin and thermal injury evoked hyperalgesia, tactile allodynia in the Chung model of neuropathy; assay type: in vivo, rat; details: single intrathecal dose of 10, 25 or 50 Φg/10 Φl saline with 20% or 25% DMSO
Procedure: Civamide 10 Φg/10 Φl saline, 25Φg/10 Φl saline, and 50 Φg/10 Φl saline and saline itself were administered intrathecally to male Sprague-Dawley rats. Each of the civamide compositions also included either 20% DMSO or 25% DMSO as a suspending agent. The saline used was 0.9% USP. Eighteen hours, 7 days, 14 days and 28 days after administration of a single intrathecal dose of either civamide or saline, models for various types of pain were evaluated. These included models for acute nociceptive processing (i.e. thermal escape), post tissue injury hyperpathic states (i.e. formalin and thermal injury evoked hyperalgesia) and nerve injury induced hyperpathia (i.e. tactile allodynia in the Chung model of neuropathy).

[4] = system: neurons; assay: Neurotoxicity of civamide (applicant's discovery, no method given)
[5] = compositions containing civamide, per U.S. Pat. No. 5,063,060; cited from earlier work

COc1cc(CNC(=O)CCCC/C=C\C(C)C)ccc1O [Civamide, cis-8-methyl-N-vanillyl-6-nonenamide]
physical and chemical stability of compositions [1]: physically and chemically stable | effectiveness versus intrathecally administered capsaicin in pain models [2]: more effective than intrathecally administered capsaicin | effectiveness versus saline in pain models [2]: significantly more effective than saline | duration of the effects of a single dose [3]: at least 28 days | time after administration by which effective pain amelioration was produced [3]: ≤ 18 h | neurotoxicity [4]: no significant neurotoxicity | efficacy compared with compositions containing capsaicin [5]: comparable in efficacy | local adverse effects compared with capsaicin [5]: significantly less local adverse effects
